From patent US7262212B2, “2,3-dihydro-6-nitroimidazo[2,1-b]oxazoles” (Otsuka Pharmaceutical Co., Ltd., priority 2002, dated 2007)
Converted amounts (≈) assume the structure as drawn.

Key:
[1] = system: Mycobacterium tuberculosis (H37Rv strain); conditions: cited from earlier work
[2] = system: M. avium; conditions: used at 250 μg/ml or less; cited from earlier work
[3] = system: M. intracellulare; conditions: used at 250 μg/ml or less; cited from earlier work
[4] = system: M. fortuitum; conditions: used at 250 μg/ml or less; cited from earlier work
[5] = system: Mycobacterium tuberculosis (M. tuberculosis H37Rv); experiment: Antimicrobial assay (agar dilution method), minimal inhibitory concentration; format: cell-based; conditions: 336 h, 7H11 agar medium, approximately 10^6 CFU/ml, 5 μl inoculated, 37° C. for 14 days

melting point | SMILES | other results
165 to 167 °C | CC1(N2CCC(C(=O)c3ccc(OC(F)(F)F)cc3)CC2)Cn2cc([N+](=O)[O-])nc2O1 (stereo not shown) | –
200 to 203 °C | CC1(COc2nc3ccccc3o2)Cn2cc([N+](=O)[O-])nc2O1 (stereo not shown) | –
179.1 to 181.9 °C | C[C@]1(CN2CCN(C(=O)N3CCC(c4ccc(C(F)(F)F)cc4)CC3)CC2)Cn2cc([N+](=O)[O-])nc2O1 | –
– | CCC1Cn2cc([N+](=O)[O-])nc2O1 (stereo not shown) [CGI-17341] | bactericidal action [1]: has a bactericidal action; activity [2]: does not have the activity; activity [3]: does not have the activity; activity [4]: does not have the activity
– | C[C@]1(CN2CCN(c3ccc(OC(F)(F)F)cc3)CC2)Cn2cc([N+](=O)[O-])nc2O1 [Example 397, (S)-2-[4-(4-trifluoromethoxyphenyl)-piperazin-1-ylmethyl]-2-methyl-6-nitro-2,3-dihydroimidazo[2,1-b]oxazole] | MIC [5]: 0.024 µg/mL (≈ 0.0562 µM)
201 to 202.3 °C (dec.) | C[C@]1(CN2CCN(N=Cc3ccc(C(F)(F)F)cc3)CC2)Cn2cc([N+](=O)[O-])nc2O1 [Example 504] | –
188.4 to 191.2 °C | C[C@]1(CN2CCN(N=Cc3ccc(C(F)(F)F)cc3)CC2)Cn2cc([N+](=O)[O-])nc2O1 [Example 505] | –
